Laboratory results from patent EP1369114A1, “Use of tryptophan metabolites as pharmaceutical agents” (Terness, Peter, Priv. Doz. Dr., priority 2002, dated 2003).

What was measured:
Type in all cases: cell-based, human
CD3-stimulated T cells = assay: CD3 stimulation of T cells: metabolite titration curves, 3[H]-thymidin incorporation; details: anti-CD3 antibody, 3 days; for IC50: Homo sapiens, T-cell, 72 h, single substance, read-out: I50 of proliferation of CD3-stimulated T cells
Description: • (a) Allogeneic T-cell response. DCs were infected with recombinant IDO-adeno-GFP (DC-IDO-GFP), IDO-adeno (DC-IDO) or with control adenoviruses (DC-adeno) at a MOI (multiplicity of infection) up to 500 for 2 days. Lymphocytes (PBMCs) were separated from peripheral blood of healthy donors by density gradient centrifugation and typed for HLA antigens. Only HLA-DR-different responder lymphocytes were used for DC-induced stimulation. Native DCs only, lymphocytes only, native DCs + allogeneic lymphocytes, DC-IDO-GFP + allogeneic lymphoytes, DC-IDO + allogeneic lymphoytes, DC-adeno + allogeneic lymphocytes (each time 10^5 DC + 10^5 lymphocytes in 0.2ml medium) were cultured in RPMI 1640 medium (Gibco BRL Life Technologies GmbH, Eggenstein, Germany) with 10% fetal calf serum (FCS) (final tryptophan concentration 5.25 mg/l = 25.69 uM) and Penicillin G/Streptomycin. […] In order to verify whether IDO expression or adenovirus infection harm the DCs, 10^5 cells were infected with IDO-adeno-GFP, IDO-adenovirus, or adenovirus only at a stepwise decreasing MOI (500, 250, 125, ........ 3.9) and cell viability was measured in FACS following double staining with 7-AAD and anti-CD83 antibody-PE. The percentage of dead cells never exceeded 30% for any MOI following IDO-adeno-GFP- or IDO-adeno-infection and 40% following adenovirus(control)-infection. Moreover, these values were not higher than those of native DCs cultured for the same period of time. The experiment was repeated using ethidium bromide or trypan blue staining with virtually the same result. […] Peripheral blood lymphocytes were cultured (10^5 cells/well) in RPMI 1640 (10% FCS) with anti CD3 monoclonal antibody (Ortho Diagnostic Systems Inc., Raritan, NJ) (final dilution 1:200). […] Kynurenine, 3-hydroxykynurenine, anthranilic acid, 3-hydroxyanthranilic acid, and quinolinic acid (Sigma-Aldrich Chemie GmbH, Taufkirchen, Germany)(for all substances purity>98%) were dissolved in RPMI 1640 and added to cell cultures at various concentrations. In an other experiment, to determine whether the metabolites have an additive effect, equal concentrations of the compounds were mixed and added to the cultures. […] Positive controls consisted of CD3-stimulated cells without metabolites and negative controls of unstimulated cells. • (d) Restimulation of suppressed T cells. Lymphocytes (10^5 cells/well) were cultured in RPMI 1640 (10% FCS) with anti-CD3 monoclonal antibody (final dilution 1:200) and kynurenine (dilution series). […] Controls consisted of cells prestimulated with anti-CD3 but not pretreated with kynurenine. In an other restimulation experiment lymphocytes were stimulated with allogeneic DCs as described, in the presence (47-1500µM) or absence of kynurenine. Control cultures contained DCs or lymphocytes only. After 5 days the cells were extensively washed, and restimulated with an identical number of DCs derived from the same donor or from third party donors. […] In order to define the concentration of tryptophan which reduces T- lymphocyte proliferation in our test system, 10^5 lymphocytes were incubated in tryptophan-free RPMI 1640 medium (Gibco BRL Life Technologies) with or without 10% FCS, stimulated with anti-CD3 monoclonal antibody, and various amounts (0-38µM) of tryptophan were added. Unimpaired proliferation was observed down to 0.30µM (medium with FCS) and 1 .20µM (without FCS). Complete inhibition was not obtained at any concentration (positive control 100% proliferation; maximal suppression in medium with FCS: approx. 66% and without FCS: approx. 33%). All cell cultures were done in triplicate.
All tests were carried out in triplicate and results are given as mean +standard deviation. […] Thereafter, the concentration of substance giving 50% proliferation was calculated by regression.

[1] = tested on: T- lymphocyte proliferation; assay: Tryptophan titration curve: proliferation of anti-CD3 stimulated lymphocytes in tryptophan-free medium; details: for maximal suppression: positive control 100% proliferation
Description: • (a) Allogeneic T-cell response. DCs were infected with recombinant IDO-adeno-GFP (DC-IDO-GFP), IDO-adeno (DC-IDO) or with control adenoviruses (DC-adeno) at a MOI (multiplicity of infection) up to 500 for 2 days. Lymphocytes (PBMCs) were separated from peripheral blood of healthy donors by density gradient centrifugation and typed for HLA antigens. Only HLA-DR-different responder lymphocytes were used for DC-induced stimulation. Native DCs only, lymphocytes only, native DCs + allogeneic lymphocytes, DC-IDO-GFP + allogeneic lymphoytes, DC-IDO + allogeneic lymphoytes, DC-adeno + allogeneic lymphocytes (each time 10^5 DC + 10^5 lymphocytes in 0.2ml medium) were cultured in RPMI 1640 medium (Gibco BRL Life Technologies GmbH, Eggenstein, Germany) with 10% fetal calf serum (FCS) (final tryptophan concentration 5.25 mg/l = 25.69 uM) and Penicillin G/Streptomycin. After 5 days, ^3[H]-thymidin was added for 12hrs and the number of counts (counts per minute = cpm) determined in a (3-counter (Inotech Biosystems, Lansing, MI). In order to verify whether IDO expression or adenovirus infection harm the DCs, 10^5 cells were infected with IDO-adeno-GFP, IDO-adenovirus, or adenovirus only at a stepwise decreasing MOI (500, 250, 125, ........ 3.9) and cell viability was measured in FACS following double staining with 7-AAD and anti-CD83 antibody-PE. The percentage of dead cells never exceeded 30% for any MOI following IDO-adeno-GFP- or IDO-adeno-infection and 40% following adenovirus(control)-infection. Moreover, these values were not higher than those of native DCs cultured for the same period of time. […] After 2 days, cell proliferation was assessed by measuring ^3[H]-thymidin incorporation (cpm) as described. • (c) Tryptophan metabolite titration curves. […] After 2 days, ^3[H] thymidin was added and the number of counts recorded. […] After another 2 days, ^3[H] thymidin was added and cpm determined. […] 3[H] thymidin was added to all cultures and the number of counts (cpm) determined. • (e) Tryptophan titration curve. […]

[2] = tested on: T cells stimulated by allogeneic DCs; assay: Allogeneic T-cell response: lymphocyte proliferation induced by allogeneic dendritic cells, 3[H]-thymidin incorporation; details: 6 days
Description: DCs were generated from CD14-positive blood monocytes as previously described ("Schuler G. and N. Romani", 1997, Adv. Exp. Med. Biol. 417:7-13). Briefly, peripheral blood mononuclear cells of an HLA-typed healthy donor were separated by density gradient centrifugation and CD14-positive monocytes were isolated by adherence to culture dishes. Non-adherent cells were discarded. After culture of monocytes in the presence of human rGM-CSF (666 Units/ml) and rIL-4 (1000 Units/ml) for 7 days, rTNF-α (10 ng/ml) was added for an additional 2 days to induce maturation of DC. Characterization of DC phenotype was performed by flow cytometry using the following mouse monoclonal antibodies: anti-CD 14-FITC, anti-HLA-DR-FITC, anti-CD 1a-PE, anti-CD86-PE, and anti-CD83-PE (BD Biosciences Heidelberg, Germany). DCs were kept in liquid nitrogen until use.
• (a) Allogeneic T-cell response. DCs were infected with recombinant IDO-adeno-GFP (DC-IDO-GFP), IDO-adeno (DC-IDO) or with control adenoviruses (DC-adeno) at a MOI (multiplicity of infection) up to 500 for 2 days. […] After 5 days, ^3[H]-thymidin was added for 12hrs and the number of counts (counts per minute = cpm) determined in a (3-counter (Inotech Biosystems, Lansing, MI). In order to verify whether IDO expression or adenovirus infection harm the DCs, 10^5 cells were infected with IDO-adeno-GFP, IDO-adenovirus, or adenovirus only at a stepwise decreasing MOI (500, 250, 125, ........ 3.9) and cell viability was measured in FACS following double staining with 7-AAD and anti-CD83 antibody-PE. The percentage of dead cells never exceeded 30% for any MOI following IDO-adeno-GFP- or IDO-adeno-infection and 40% following adenovirus(control)-infection. […] After 2 days, cell proliferation was assessed by measuring ^3[H]-thymidin incorporation (cpm) as described. • (c) Tryptophan metabolite titration curves. […] After 2 days, ^3[H] thymidin was added and the number of counts recorded. […] After another 2 days, ^3[H] thymidin was added and cpm determined. […]

T cells = assay: Detection of cell death: 7-AAD staining of anti-CD3 stimulated lymphocytes, FACScan; details: anti-CD3, 3 days; 1501 µM kynurenine, 349µM 3-hydroxykynurenine, 510µM 3-hydroxyanthranilic acid, mixture 64 µM of each compound
Method: Lymphocytes were stimulated in culture with anti-CD3 monoclonal antibody (s. above) in the presence or absence (control) of kynurenine (1501µM), 3-hydroxyanthranilic acid (510µM), 3-hydroxykynurenine (348µM), or metabolite mixture (64µM kynurenine + 64µM 3-hydroxykynurenine + 64µM anthranilic acid + 64µM 3-hydroxyanthranilic acid + […] quinolinic acid). After 3 days the cells were washed and resuspended in PBS (10^6/ml). Thereafter, the cells (100µ1 suspension) were labeled with anti-CD3-FITC antibody (3 µl), stained with 7-AAD (5µl) for 15 min, and the percentage of 7-AAD-positive (dead) T cells was determined in a FACScan. In an other experiment T cells, B cells, NK-cells, or DCs were separated from PBMCs by magnetic beads or generated as described, and cultured (5x10^5 cells/ml) with a mixture of kynurenine metabolites (kynurenine + 3-hydroxykynurenine + anthranilic acid + 3-hydroxyanthranilic acid + quinolinic acid)(8, 16, or 32µM respectively for each compound). In one setting T cells were activated with anti-CD3 antibody. Cell death was measured daily for 5 days by 7-AAD staining and expressed in percentage of dead cells.

NC(CC(=O)c1ccccc1NC=O)C(=O)O (centres unmarked) [N-formylkynurenine]
suppression of T cell response (in words) (CD3-stimulated T cells): Suppression of T-cell response can also be achieved

N[C@@H](Cc1c[nH]c2ccccc12)C(=O)O [tryptophan]
lowest tryptophan concentration with unimpaired proliferation ([1]; medium with FCS): 0.30 µM | maximal suppression ([1]; medium with FCS): approx. 66% | maximal suppression ([1]; medium without FCS): approx. 33%

O=C(O)c1cccnc1C(=O)O [quinolinic acid]
suppression of T cell response (in words) (CD3-stimulated T cells): suppressive but at higher concentrations

Nc1ccccc1C(=O)C[C@@H](N)C(=O)O [D-kynurenine]
suppression of T cell response (in words) (CD3-stimulated T cells): The same effect was noted | inhibition of proliferation of T cells stimulated by allogeneic DCs (in words) [2]: The same effect was noted

Nc1ccccc1C(=O)O [anthranilic acid]
suppression of T cell response (in words) (CD3-stimulated T cells): suppressive but at higher concentrations

Nc1c(O)cccc1C(=O)O [3-hydroxyanthranilic acid]
IC50 (CD3-stimulated T cells): 96 µM | suppression of T cell response (in words) (CD3-stimulated T cells): strongly suppress T cells | dead (7-AAD-positive) T cells (in words) (T cells): virtually all cells died

Nc1c(O)cccc1C(=O)CC(N)C(=O)O (centres unmarked) [3-hydroxykynurenine]
IC50 (CD3-stimulated T cells): 187 µM | suppression of T cell response (in words) (CD3-stimulated T cells): strongly suppress T cells | dead (7-AAD-positive) T cells (in words) (T cells): virtually all cells died
